# Results as given in patent US9446092B2, “Use of a neurofilament peptide for the treatment of glioma” (UNIVERSITE D'ANGERS, priority 2009, dated 2016).
# Ends that are not written are not given here.
# Columns and labels:
# [1] = test system: primary human glioblastoma cells; experiment: MTS assay on primary glioblastoma cells isolated after surgery; type: cell-based; settings: 40 nM, 72 h
# Method: Primary human glioblastoma cells obtained from tissue samples extracted in human brains during surgery are put in culture in a DMEM medium containing glucose, L-glutamine, 10% fetal calf serum, […] (Sigma). Cells were plated (20 000 cells per cm^2) in MW96 and let grow at 37° C. in a humidified incubator gassed with 5% CO2. The peptides and/or drugs are added 48 hours after their plating.
# (§1) The effects of peptides on the proliferation of glioma cells or astrocytes were evaluated by the MTS cytotoxicity assay and by counting directly the number of cells. For the MTS assay (Promega), 500 cells were seeded in 96-well plates, incubated at 37° C. for 24 hours, and treated by the peptide at the indicated concentrations for 24, 48 and 72 hours, or with vehicle (PBS or water). Media and peptides were replaced daily. Peptides were prepared in DMEM, and paclitaxel was dissolved in DMSO at a concentration of 2 mM and further diluted into DMEM. Viability was also determined by trypan blue staining. For manual counts, cells were treated with 0.25% trypsin/0.53 mM EDTA, centrifuged, and counted with a hemacytometer following addition of trypan blue dye. At each time, 3 to 6 wells per treatment were counted.
# [2] = test system: glioma cells; experiment: Peptide uptake by glioma cells: temperature/energy dependence and sequence specificity; type: cell-based
# Method: To evaluate the internalization of fluorescein-labeled NFL-TBS40-63 peptide by FACS, glioma cells or astrocytes were seeded in 35 mm dishes and cultured for 1 hour at 37° C. in media containing fluorescein-labeled NFL-TBS40-63 peptide at increasing concentrations or with vehicle (PBS). Cells were trypsinized, washed twice in cold PBS before incubation with trypsin (1 mg/mL) during 15 min at 37° C. To investigate a possible energy-dependant mechanism for the uptake of the peptide, cells were incubated at 4° C. with 20 μM fluorescein-labeled NFL-TBS2 peptide (after 15 min of 4° C. preincubation), or with 10 mM sodium azide in the presence of 6 mM 2-deoxy-D-glucose for 1 hour to deplete cellular ATP before addition of 20 μM fluorescence-labeled NFL-TBS2 peptide. Cells were then washed once, resuspended in 500 μl containing 50 μg/mL propidium iodide (Sigma, Saint-Quentin Fallavier, France), and analyzed with FACScalibur flow cytometer. Experiment on each cell type was repeated three times. 20,000 events per sample were analyzed in each experiment.
# [3] = test system: F98 cells; experiment: Cell death analysis by flow cytometry (Annexin V / PI); type: cell-based, rat; settings: 100 μM, 72 hours, Annexin V/PI FACS
# Method: (§2) To detect possible apoptotic processes, cells were seeded in 35 mm dishes and cultured in media containing biotinylated peptides (100 μM) or PBS alone for 72 hours. Paclitaxel (40 nM) was used as a positive control to induce apoptosis (Terzis et al., 1997). Cells were then trypsinized, washed in cold PBS, and stained with Annexin V-FITC (BD Pharmingen) in Annexin buffer for 15 min at room temperature. Finally, they were counterstained with 50 μg/mL propidium iodide (Sigma) and analyzed with a FACSCalibur flow cytometer. Experiment on each cell type was repeated three times. 20,000 events per sample were analyzed in each experiment.
# [4] = test system: primary astrocytes; experiment: as above; type: cell-based, rat; settings: 100 μM, 72 hours, Annexin V/PI FACS
# Method: as §2
# [5] = test system: 9L cells; experiment: as above; type: cell-based, rat; settings: 100 μM, 72 hours, Annexin V/PI FACS
# Method: as §2
# [6] = test system: rat neurons; experiment: Immunocytochemistry: peptide penetration and microtubule network; type: cell-based; settings: 10 μM, 6 h
# Method: Hippocampal neuronal cultures were prepared from newborn rat brains according to Ray et al. 1993 and Kaech and Banker 2006. Briefly, the hippocampi of animals younger than 2 days were recovered, minced and digested in 0.01% trypsin for one hour at 37° C. Dissociated cells were plated on coverslips precoated with 5 μg/ml poly-1-lysine and 7 μg/ml collagen at densities of 2×10^5/ml and incubated at 37° C. with a 5% CO2 atmosphere. Twenty-four hours later, the plating solution was replaced by B-27 neurobasal medium, and the second day cytosine arabinoside (20 μM) was added to eliminate non-neural cells. Experiments were performed 7 days after plating.
# Cells were plated on coverslips and cultured in media containing biotinylated peptides (10 μM) for 6 hours. Following PBS washing, the cells were fixed for 10 min in 4% paraformaldehyde, and washed 3 times in PBS. […]
# (§3) Observations were carried out with an Olympus confocal microscope (BX50) using Fluoview.3.1. […] Images were acquired with a CoolSNAP-HQ2 camera and analyzed with Metamorph 7.1.7.0. software. Cells that are positive for peptide staining and cells with destroyed microtubule network were counted. Experiments on each cell type were repeated at least three times, and minimums of 200 cells were analyzed for each experiment.
# [7] = test system: F98 glioma cells; experiment: as above; type: cell-based, rat; settings: 10 μM, 6 h
# Method: (§4) Cells were plated on coverslips and cultured in media containing biotinylated peptides (10 μM) for 6 hours. Following PBS washing, the cells were fixed for 10 min in 4% paraformaldehyde, and washed 3 times in PBS. They were then incubated for 10 min in a 0.5% triton X-100 permeabilization solution, washed 3 times in PBS before incubation in a blocking solution (5% BSA) for 15 min. Glioma cells and astrocytes were incubated overnight at 4° C. with mouse anti-B-tubulin antibody (Sigma) 1/200, and neurons with mouse anti-Bill-tubulin antibody 1/200. Tubulin and biotinylated peptides were localized using respectively Alexa 568 nm anti-mouse antibody and streptavidin Alexa 488 nm (Molecular Probes) 1/200 for 1 hour, followed by washing in PBS. The preparations were counterstained with 3 μM 4′6-diaminido-2-phenylindole (DAPI; Sigma) for 5 min, and washed twice with PBS. Coverslips were mounted with an antifading solution.
# (§5) Observations were carried out with an Olympus confocal microscope (BX50) using Fluoview.3.1. Software or a Leica DMI6000 inverted microscope. Images were acquired with a CoolSNAP-HQ2 camera and analyzed with Metamorph 7.1.7.0. software. Cells that are positive for peptide staining and cells with destroyed microtubule network were counted. Experiments on each cell type were repeated at least three times, and minimums of 200 cells were analyzed for each experiment.
# [8] = test system: 9L glioma cells; experiment: as above; type: cell-based, rat; settings: 10 μM, 6 h
# Method: as §4, §5
# [9] = test system: rat astrocytes; experiment: BrdU incorporation (cell proliferation); type: cell-based; settings: 100 μM, 72 hours
# Method: (§6) To assess cell proliferation, 5-bromodeoxyuridine (BrdU) immunohistochemistry was used. Cells were platted on coverslips and cultured in media containing biotinylated peptides (100 μM) for 72 hours, and incubated during 4 hours in the presence of 1 mg/mL BrdU (Sigma). Cells were then washed in PBS, fixed in 3% paraformaldehyde for 10 min and permeabilized with 1% Triton X-100 in PBS for 10 min. Cells were acidified to denature the DNA (2 N HCl, 10 min), neutralized (0.1 M sodium borate, 10 min) and then rinsed extensively in PBS. After blocking with 10% NGS (10 min) the cells were labeled with monoclonal anti-BrdU antibody (1/400) followed by Alexa 568 nm anti-mouse antibody (1/200). Nuclei were stained with 4′6-diaminido-2-phenylindole (DAPI; Sigma). […] Images were acquired with a CoolSNAP HQ2 camera and analyzed with Metamorph 7.1.7.0. software. Minimums of 200 cells were scored for BrdU incorporation, and experiments were repeated at least three times.
# [10] = test system: F98 cells; experiment: BrdU incorporation (cell proliferation); type: cell-based, rat; settings: 100 μM, 72 hours
# Method: as §6
# [11] = test system: 9L cells; experiment: BrdU incorporation (cell proliferation); type: cell-based, rat; settings: 100 μM, 72 hours
# Method: as §6
# [12] = test system: rat primary astrocytes; experiment: Immunocytochemistry: peptide penetration and microtubule network; type: cell-based; settings: 10 μM, 6 h
# Method: Rat primary astrocytes were obtained from cultures of cerebral cortex as originally described (McCarthy and de Vellis, 1980). Briefly, the cerebral cortex was dissected from newborn rats and cells were recovered after tissue homogenization, trypsination, and centrifugation. They were grown during 3 weeks in DMEM media with glucose and L-glutamine (Lonza France), containing 10% fetal calf serum (Lonza France), 1% penicillin/streptomycin (Sigma) in humidified incubator gassed with 5% CO2 (37° C.).
# Cells were plated on coverslips and cultured in media containing biotinylated peptides (10 μM) for 6 hours. Following PBS washing, the cells were fixed for 10 min in 4% paraformaldehyde, and washed 3 times in PBS. They were then incubated for 10 min in a 0.5% triton X-100 permeabilization solution, washed 3 times in PBS before incubation in a blocking solution (5% BSA) for 15 min. […]
# as §3
# [13] = test system: F98 glioma cells; experiment: MTS cytotoxicity assay; type: cell-based, rat; settings: 100 μM, 72 hours
# Method: as §1
# [14] = test system: 9L glioma cells; experiment: MTS cytotoxicity assay; type: cell-based, rat; settings: 100 μM, 72 hours
# Method: as §1
# [15] = Non tumor-bearing (control) rats, intracerebral peptide injection; type: in vivo, rat
molecule,measurement,setting,value
"CC(=O)O[C@H]1C(=O)[C@@]2(C)[C@H]([C@H](OC(=O)c3ccccc3)[C@]3(O)C[C@H](OC(=O)[C@H](O)[C@@H](NC(=O)c4ccccc4)c4ccccc4)C(C)=C1C3(C)C)[C@]1(OC(C)=O)CO[C@@H]1C[C@@H]2O [taxol, paclitaxel]",cell survival compared with NFL-TBS40-63 peptide (MTS),[1],at the same level
"NFL-SCR: similarly labeled scrambled peptide, control scrambled sequence of NFL-TBS40-63 (SLGSPSSSVRASYSSSRSYVYSSS; also: N-terminal label (biotin or carboxyfluorescein), not given here for this peptide)",internalization into glioma cells,[2],absence of internalization
same,apoptotic response,[3],has no effect
same,apoptotic response,[4],has no effect
same,apoptotic response,[5],has no effect
same,cells with altered microtubule network,[6],didn't alter the microtubule network
same,"total cells with altered microtubule network (spherical shape, aggregated tubulin)",[7],didn't alter the microtubule network
same,"total cells with altered microtubule network (spherical shape, aggregated tubulin)",[8],didn't alter the microtubule network
same,effect on proliferation (BrdU incorporation),[9],has no effect
same,inhibition of BrdU incorporation,[10],has no effect
same,inhibition of BrdU incorporation,[11],has no effect
same,cells with altered microtubule network,[12],didn't alter the microtubule network
YSSYSAPVSSSLSVRRSYSSSSGS [NFL-TBS40-63],reduction of cell viability (MTS),[13],60.8%±2.8
same,reduction of cell viability (MTS),[14],30.0%±4.4
same,cellular defects in normal brain,[15]; injected in normal brain,no major cellular defects
same,"clinical signs of distress (weight loss, hunched posture)",[15]; non tumor-bearing rats treated with the peptide,no clinical signs of distress
same,elimination of the peptide from normal brain,"[15]; same procedure, days 16, 24 or 30",rapidly eliminated and was not detectable at these time points
